US8211909B2, “Treatment of antibiotic-resistant bacteria infection” (TaiGen Biotechnology Co., Ltd., priority 2008, dated 2012)
≈ marks a conversion by molar mass, not a printed value. Where two headings read alike, the source gives them in different places.

Experiments:
[1] = test system: Methicillin-resistant Staphylococcus aureus (MRSA) isolates; assay: MIC by broth microdilution (CLSI) against CAN-ICU MRSA isolates; format: cell-based; details: Staphylococcus aureus
From the text: MRSA isolates (n=193) were obtained as part of the Canadian National Intensive Care Unit (CAN-ICU) Study. 19 medical centers from all regions of Canada with active ICUs participated in the CAN-ICU study included. They were requested to only obtain “clinically significant” specimens from patients with a presumed infectious disease. Surveillance swabs, eye, ear, nose and throat swabs were excluded. Anaerobic organisms and fungal organisms were also excluded.
From September 2005-June 2006 (inclusive), each center collected a maximum of 300 consecutive pathogens isolated from blood, urine, tissue/wound, and respiratory specimens (one pathogen per cultured site per patient) of ICU patients. These isolates were shipped to the reference laboratory (Health Sciences Centre, Winnipeg, Canada) on Amies charcoal swabs, subcultured in appropriate media, and stocked in skim milk at −80° C.
All isolates underwent mecA PCR, as well as molecular characterization (including PVL analysis and fingerprinting), as previously described, to assess whether they were community-associated or healthcare-associated (Christianson et al., J Clin Microbiol. 2007, 45 (6): 1904-11; Mulvey et al., J Clin. Microbiol. 2001, 39(10): 3481-5; Mulvey et al., Emerg Infect Dis. 2005,11(6): 844-50; Oliveira et al., Antimicrob Agents Chemother. 2002, 46(7): 2155-61). The isolates were also subtyped using pulsed-field gel electrophoresis (PFGE) following the Canadian standardized protocol as previously described (Mulvey et al., J Clin Microbiol. 2001, 39(10): 3481-5). Their PFGE fingerprints thus obtained were analyzed with BioNumerics v3.5 (Applied Maths St. Marten-Latem, Belgium) using a position tolerance of 1.0 and an optimization of 1.0. Strain relatedness was determined as previously described (Tenover et al., 1995). The fingerprints of the isolates were compared to the national MRSA fingerprint database and were grouped into one of 10 Canadian epidemic MRSA (CMRSA-1, CMRSA-2, etc) as previously described (Mulvey et al., Emerg Infect Dis. 2005,11(6):844-50).
Compound 1 and other antibiotics were tested for their inhibitory activity against the MRSA isolates using the broth microdilution guidelines as stipulated by the Clinical and Laboratory Standards Institute.

[2] = test system: Staphylococcus aureus strains (MRSA, hVISA, VISA, VRSA, quinolone-resistant MRSA); assay: MIC by agar dilution against Staphylococcal strains (MRSA, hVISA, VISA, VRSA, quinolone-resistant MRSA); format: cell-based; details: Staphylococcus aureus
Protocol: Compound 1 was tested for its inhibitory effect against 26 Methicillin-resistant Staphylococcus aureus (MRSA) strains, 2 hetero-Vancomycin intermediate Staphylococcus aureus (hVISA) strains, 24 Vancomycin-intermediate Staphylococcus aureus (VISA) strains, 5 Vancomycin-resistant Staphylococcus aureus (VRSA) strains, and 31 quinolone-resistant Vancomycin-susceptibale MRSA strains with defined mutations in QRDR. These mutations were determined by sequencing analysis of the QRDR (gyrA, gyrB, grlA, and grlB). Efflux testing was performed by the reserpine method (Brenwald, et al., Antimicrob. Agents Chemother. 1998, 42: 2032-2035).

[3] = test system: H. pylori isolates; assay: MIC by agar dilution against 200 H. pylori isolates (Taiwan); format: cell-based, Helicobacter pylori
Protocol: MICs were determined using the agar dilution methods recommended by the Clinical and Laboratory Standards Institute (CLSI-M100-S18).

[4] = MRSA (n = 193), read-out: MIC50
[5] = MRSA (n = 193), read-out: MIC90
[6] = MRSA (n = 193), read-out: MIC Range Max
[7] = MRSA (n = 193), read-out: MIC Range Min
[8] = hVISA(2) + VISA (24) + VRSA (5)
[9] = read-out: MIC Range, Quinolone-resistant MRSA (31)
[10] = read-out: MIC Range, hVISA(2) + VISA (24) + VRSA (5)
[11] = Helicobacter pylori, 200 isolates of H. pylori

Row | Structure (SMILES) | MIC50 [1, 4] [mg/L] | MIC90 [1, 5] [mg/L] | MIC [1, 6] [mg/L] | MIC [1, 7] [mg/L] | MIC50 ([2]; MRSA (26)) [mg/L] | MIC90 ([2]; MRSA (26)) [mg/L] | MIC50 ([2]; Quinolone-resistant MRSA (31)) [mg/L] | MIC90 ([2]; Quinolone-resistant MRSA (31)) [mg/L] | MIC50 [2, 8] [mg/L] | MIC90 [2, 8] [mg/L] | MIC ([2]; read-out: MIC Range, MRSA (26)) [mg/L] | MIC [2, 9] [mg/L] | MIC [2, 10] [mg/L] | also measured
1 | C[C@@H](O)[C@H]1C(=O)N2C(C(=O)O)=C(S[C@@H]3CN[C@H](C(=O)N(C)C)C3)[C@H](C)[C@H]12 [Meropenem] | 16 (≈ 41.7 µM) | > 32 | > 32 | 0.25 (≈ 0.652 µM) | – | – | – | – | – | – | – | – | – | –
2 | CCC[C@@H]1C[C@@H](C(=O)N[C@@H]([C@H]2O[C@H](SC)[C@H](O)[C@@H](O)[C@H]2O)[C@H](C)Cl)N(C)C1 [Clindamycin] | > 8 | > 8 | > 8 | ≤ 0.12 | – | – | – | – | – | – | – | – | – | –
3 | CN(C)c1cc(NC(=O)CNC(C)(C)C)c(O)c2c1C[C@H]1C[C@H]3[C@H](N(C)C)C(O)=C(C(N)=O)C(=O)[C@@]3(O)C(O)=C1C2=O [Tigecycline] | – | – | – | – | 0.25 (≈ 0.427 µM) | 0.5 (≈ 0.854 µM) | 0.12 (≈ 0.205 µM) | 0.25 (≈ 0.427 µM) | 0.25 | 0.5 | 0.12 to 0.5 (≈ 0.205 to 0.854 µM) | 0.12 to 0.5 (≈ 0.205 to 0.854 µM) | 0.06 to 0.5 | MIC50 ([1]; MRSA): 0.25 mg/L (≈ 0.427 µM); MIC90 ([1]; MRSA): 0.5 mg/L (≈ 0.854 µM); MIC50 ([1]; MRSA / USA100): 0.25 mg/L (≈ 0.427 µM); MIC90 ([1]; MRSA / USA100): 0.25 mg/L (≈ 0.427 µM); MIC50 ([1]; MRSA / USA200): 0.5 mg/L (≈ 0.854 µM); MIC90 ([1]; MRSA / USA200): 0.5 mg/L (≈ 0.854 µM); MIC50 ([1]; MRSA / USA300): 0.25 mg/L (≈ 0.427 µM); MIC90 ([1]; MRSA / USA300): 0.5 mg/L (≈ 0.854 µM); MIC50 ([1]; MRSA / USA400): 0.25 mg/L (≈ 0.427 µM); MIC90 ([1]; MRSA / USA400): 0.25 mg/L (≈ 0.427 µM); MIC50 ([1]; MRSA / USA600): 0.25 mg/L (≈ 0.427 µM); MIC90 ([1]; MRSA / USA600): 0.5 mg/L (≈ 0.854 µM); MIC ([1]; MRSA, read-out: MIC Range Max): 0.5 mg/L (≈ 0.854 µM); MIC ([1]; MRSA, read-out: MIC Range Min): 0.12 mg/L (≈ 0.205 µM)
4 | Cc1ncc([N+](=O)[O-])n1CCO [metronidazole] | – | – | – | – | – | – | – | – | – | – | – | – | – | share of isolates resistant ([3]; 200 H. pylori isolates, resistance: amoxicillin MICs≧0.5, clarithromycin ≧1, metronidazole ≧8, ciprofloxacin ≧1, levofloxacin ≧1 μg/mL): 29%
5 | CO/N=C(\C(=O)N[C@@H]1C(=O)N2C(C(=O)O)=C(CSc3nc(=O)c(=O)[nH]n3C)CS[C@H]12)c1csc(N)n1 [Ceftriaxone] | > 64 | > 64 | > 64 | 8 (≈ 14.4 µM) | – | – | – | – | – | – | – | – | – | –
6 | CC(=O)NC[C@H]1CN(c2ccc(N3CCOCC3)c(F)c2)C(=O)O1 [Linezolid] | 2 (≈ 5.93 µM) | 2 (≈ 5.93 µM) | 4 (≈ 11.9 µM) | 0.5 (≈ 1.48 µM) | 4 (≈ 11.9 µM) | 4 (≈ 11.9 µM) | 1 (≈ 2.96 µM) | 1 (≈ 2.96 µM) | 1 | 1 | 2 to 4 (≈ 5.93 to 11.9 µM) | 0.25 to 1 (≈ 0.741 to 2.96 µM) | 0.5 to 2 | MIC50 ([1]; MRSA / USA100, USA 100/800 (HA-MRSA), read-out: MIC50): 2 mg/L (≈ 5.93 µM); MIC90 ([1]; MRSA / USA100, USA 100/800 (HA-MRSA), read-out: MIC90): 2 mg/L (≈ 5.93 µM); MIC50 ([1]; MRSA / USA200, USA 200 (HA-MRSA), read-out: MIC50): 2 mg/L (≈ 5.93 µM); MIC90 ([1]; MRSA / USA200, USA 200 (HA-MRSA), read-out: MIC90): 2 mg/L (≈ 5.93 µM); MIC50 ([1]; MRSA / USA300, USA 300 (CA-MRSA), read-out: MIC50): 1 mg/L (≈ 2.96 µM); MIC90 ([1]; MRSA / USA300, USA 300 (CA-MRSA), read-out: MIC90): 2 mg/L (≈ 5.93 µM); MIC50 ([1]; MRSA / USA400, USA 400 (CA-MRSA), read-out: MIC50): 2 mg/L (≈ 5.93 µM); MIC90 ([1]; MRSA / USA400, USA 400 (CA-MRSA), read-out: MIC90): 2 mg/L (≈ 5.93 µM); MIC50 ([1]; MRSA / USA600, USA 600 (HA-MRSA), read-out: MIC50): 2 mg/L (≈ 5.93 µM); MIC90 ([1]; MRSA / USA600, USA 600 (HA-MRSA), read-out: MIC90): 2 mg/L (≈ 5.93 µM)
7 | COc1c(N2C[C@@H]3CCCN[C@@H]3C2)c(F)cc2c(=O)c(C(=O)O)cn(C3CC3)c12 [Moxifloxacin] | – | – | – | – | 0.06 (≈ 0.149 µM) | 0.06 (≈ 0.149 µM) | 4 (≈ 9.96 µM) | 8 (≈ 19.9 µM) | 4 | 8 | 0.03 to 0.25 (≈ 0.0747 to 0.623 µM) | 1 to 8 (≈ 2.49 to 19.9 µM) | 0.06 to 8 | MIC50 [3, 11]: 250 mg/L (≈ 623 µM); MIC90 [3, 11]: 500 mg/L (≈ 1250 µM)
